The source of these data is patent US20060094702A1, “5-HT4 receptor antagonists” (SMITHKLINE BEECHAM P.L.C., priority 1993, published 2006).

For this test, the target named is T1, 5-HT4 receptor (Cavia porcellus, UniProt O70528).
T1 construct: Longitudinal muscle-myenteric plexus preparations, approximately 3 cm long, are obtained from the distal colon region; from tissue; host or cells: guinea-pig distal colon longitudinal muscle-myenteric plexus
Nature of the test: Guinea pig colon 5-HT4 receptor antagonist activity (5-HT evoked contraction of longitudinal muscle-myenteric plexus). Particulars: guinea-pig distal colon longitudinal muscle-myenteric plexus; contractions evoked by 5-HT; methiothepin 10^-7M and granisetron 10^-6M present; read-out: pIC50 (-log concentration of antagonist which reduces the contraction by 50%) (converted). The procedure: 5-HT4 Receptor Antagonist Activity
Male guinea-pigs, weighing 250-400 g are used. Longitudinal muscle-myenteric plexus preparations, approximately 3 cm long, are obtained from the distal colon region. These are suspended under a 0.5 g load in isolated tissue baths containing Krebs solution bubbled with 5% CO2 in O2 and maintained at 37° C. In all experiments, the Krebs solution also contains methiothepin 10^-7M and granisetron 10^-6M to block effects at 5-HT1, 5-HT2 and 5-HT3 receptors.
After construction of a simple concentration-response curve with 5-HT, using 30 s contact times and a 15 min dosing cycle, a concentration of 5-HT is selected so as to obtain a contraction of the muscle approximately 40-70% maximum(10^-9M approx). The tissue is then alternately dosed every 15 min with this concentration of 5-HT and then with an approximately equi-effective concentration of the nicotine receptor stimulant, dimethylphenylpiperazinium (DMPP). After obtaining consistent responses to both 5-HT and DMPP, increasing concentrations of a putative 5-HT4 receptor antagonist are then added to the bathing solution. The effects of this compound are then determined as a percentage reduction of the contractions evoked by 5-HT or by DMPP. […] A compound which reduces the response to 5-HT but not to DMPP is believed to act as a 5-HT4 receptor antagonist.

T1 sequence (O70528 whole entry): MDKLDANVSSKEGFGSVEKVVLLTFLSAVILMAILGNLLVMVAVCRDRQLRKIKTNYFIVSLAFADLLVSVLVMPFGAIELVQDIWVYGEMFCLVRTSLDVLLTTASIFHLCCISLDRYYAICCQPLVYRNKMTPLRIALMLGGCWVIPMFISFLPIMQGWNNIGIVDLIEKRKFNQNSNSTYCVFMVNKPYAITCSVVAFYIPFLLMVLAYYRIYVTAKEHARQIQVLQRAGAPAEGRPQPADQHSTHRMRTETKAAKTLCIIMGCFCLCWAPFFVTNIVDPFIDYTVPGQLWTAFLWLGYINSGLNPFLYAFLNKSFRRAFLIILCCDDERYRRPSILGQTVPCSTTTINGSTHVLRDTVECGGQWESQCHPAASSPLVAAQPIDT

As for `CCCCN1CCC(CCC(=O)c2cn(C)c3ccccc23)CC1` [Example 1, 1-(1-Methyl-1H-indol-3-yl)-3-(1-butylpiperidin-4-yl)propan-1-one], the IC50 was 158 nM.
